Test results: US9981913B2, “Liver X receptor (LXR) modulators” (Ralexar Therapeutics, Inc., priority 2013, dated 2018)
pEC50: −log10 of the molar value.

What follows are compounds tested against T1, human LXRβ (AA 153-461) LBD (Homo sapiens, UniProt P55055) (assay: Gal4 LXRβ cotransfection assay (LXRβ Gal fusion assay)). Details: transiently transfected HEK 293 cells, Gal4-responsive luciferase reporter, compounds 0.01-10 μM, triplicate.
T1 construct: human LXRβ (AA 153-461) LBD plasmid; expressed in transfected cells; host or cells: HEK 293 cells, transient transfection with Fugene 6
T1 sequence (P55055 153-460 limits assumed): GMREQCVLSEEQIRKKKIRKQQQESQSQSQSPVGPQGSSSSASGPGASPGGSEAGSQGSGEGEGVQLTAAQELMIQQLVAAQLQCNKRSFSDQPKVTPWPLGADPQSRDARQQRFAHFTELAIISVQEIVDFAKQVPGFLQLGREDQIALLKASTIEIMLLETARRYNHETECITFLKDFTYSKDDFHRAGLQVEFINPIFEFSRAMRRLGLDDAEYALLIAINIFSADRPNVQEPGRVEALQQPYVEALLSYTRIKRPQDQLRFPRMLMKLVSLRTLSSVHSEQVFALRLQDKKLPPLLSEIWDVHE
Format: cell-based
Description: For transient transfection of HEK 293 cells, 6×10^3 cells are plated into 96-well dishes. Each well is transfected with 25 ng 5×UAS-luciferase reporter (pG5luc) and 25 ng of […] human LXRβ (AA 153-461) LBD plasmid using Fugene 6 reagent (Roche; Indianapolis, Ind.). The chimeric protein is assessed for the ability to transactivate a Gal4-responsive luciferase reporter plasmid in a concentration-responsive manner to compounds (0.01-10 μM). Luciferase activity at each dose concentration is measured in triplicate using standard substrate reagents (BD Biosciences; San Diego, Calif.). Data is expressed as relative light units and are shown below in Table 1.
In the case of `CCOC(=O)Cc1nc(C(F)(F)F)cn1-c1ccc(-c2cccc(S(C)(=O)=O)c2)cc1` [Example 1, Ethyl 2-(1-(3′-(methylsulfonyl)-[1,1′-biphenyl]-4-yl)-4-(trifluoromethyl)-1H-imidazol-2-yl)acetate], the pEC50 was 5.00 to 6.00.
In the case of `CS(=O)(=O)c1cccc(-c2ccc(-n3cc(C(F)(F)F)nc3CC(=O)O)cc2)c1` [Example 2, 2-(1-(3′-(Methylsulfonyl)-[1,1′-biphenyl]-4-yl)-4-(trifluoromethyl)-1H-imidazol-2-yl)acetic acid], the pEC50 was less than 5.00.
For `CCOC(=O)Cc1nc(C(F)(F)F)cn1-c1ccc(-c2ccc(CO)c(S(C)(=O)=O)c2)cc1` [Example 3, Ethyl 2-(1-(4′-(hydroxymethyl)-3′-(methylsulfonyl)-[1,1′-biphenyl]-4-yl)-4-(trifluoromethyl)-1H-imidazol-2-yl)acetate], the pEC50 was greater than 6.00.
In the case of `CS(=O)(=O)c1cc(-c2ccc(-n3cc(C(F)(F)F)nc3CC(=O)O)cc2)ccc1CO` [Example 4, 2-(1-(4′-(Hydroxymethyl)-3′-(methylsulfonyl)[1,1′-biphenyl]-4-yl)-4-(trifluoromethyl)-1H-imidazol-2-yl)acetic acid], the pEC50 was less than 5.00.
`CCOC(=O)c1cc(-c2ccc(-c3cccc(S(C)(=O)=O)c3)cc2)n(CC(C)C)n1` [Example 5, Ethyl 1-isobutyl-5-(3′-(methylsulfonyl)-[1,1′-biphenyl]-4-yl)-1H-pyrazole-3-carboxylate] showed a pEC50 greater than 6.00.
For `CC(C)Cn1nc(C(=O)O)cc1-c1ccc(-c2cccc(S(C)(=O)=O)c2)cc1` [Example 6, 1-Isobutyl-5-(3′-(methylsulfonyl)-[1,1′-biphenyl]-4-yl)-1H-pyrazole-3-carboxylic acid], the pEC50 was less than 5.00.
Work on `CCOC(=O)c1cc(-c2ccc(-c3ccc(CO)c(S(C)(=O)=O)c3)cc2)n(CC(C)C)n1` [Example 7, Ethyl 5-(4′-(hydroxymethyl)-3′-(methylsulfonyl)[1,1′-biphenyl]-4-yl)-1-isobutyl-1H-pyrazole-3-carboxylate] yielded a pEC50 of 5.00 to 6.00.
`CC(C)Cn1nc(C(=O)O)cc1-c1ccc(-c2ccc(CO)c(S(C)(=O)=O)c2)cc1` [Example 8, 5-(4′-(Hydroxymethyl)-3′-(methylsulfonyl)-[1,1′-biphenyl]-4-yl)-1-isobutyl-1H-pyrazole-3-carboxylic acid] showed a pEC50 of less than 5.00.
Compound `CCOC(=O)c1cn(-c2ccc(-c3cccc(S(C)(=O)=O)c3)cc2)c(CC(C)C)n1` [Example 9, Ethyl 2-isobutyl-1-(3′-(methylsulfonyl)-[1,1′-biphenyl]-4-yl)-1H-imidazole-4-carboxylate] has a pEC50 of 5.00 to 6.00.
With `CC(C)Cc1nc(C(=O)O)cn1-c1ccc(-c2cccc(S(C)(=O)=O)c2)cc1` [Example 10, 2-Isobutyl-1-(3′-(methylsulfonyl)-[1,1′-biphenyl]-4-yl)-1H-imidazole-4-carboxylic acid] the pEC50 was less than 5.00.
`CCOC(=O)c1cn(-c2ccc(-c3ccc(CO)c(S(C)(=O)=O)c3)cc2)c(CC(C)C)n1` [Example 11, Ethyl 1-(4′-(hydroxymethyl)-3′-(methylsulfonyl)-[1,1′-biphenyl]-4-yl)-2-isobutyl-1H-imidazole-4-carboxylate] gave a pEC50 of 5.00 to 6.00.
`CC(C)Cc1nc(C(=O)O)cn1-c1ccc(-c2ccc(CO)c(S(C)(=O)=O)c2)cc1` [Example 12, 1-(4′-(Hydroxymethyl)-3′-(methylsulfonyl)-[1,1′-biphenyl]-4-yl)-2-isobutyl-1H-imidazole-4-carboxylic acid] was tested, and the pEC50 was less than 5.00.
Work on `C=C(C)c1cc(-c2ccc(-c3cccc(S(C)(=O)=O)c3)cc2)n(CC(=O)OCC)n1` [Example 13, Ethyl 2-(5-(3′-(methylsulfonyl)-[1,1′-biphenyl]-4-yl)-3-(prop-1-en-2-yl)-1H-pyrazol-1-yl)acetate] yielded a pEC50 greater than 6.00.
`C=C(C)c1cc(-c2ccc(-c3cccc(S(C)(=O)=O)c3)cc2)n(CC(=O)O)n1` [Example 14, 2-(5-(3′-(Methylsulfonyl)-[1,1′-biphenyl]-4-yl)-3-(prop-1-en-2-yl)-1H-pyrazol-1-yl)acetic acid] showed a pEC50 of less than 5.00.
`CCOC(=O)Cn1nc(C(C)C)cc1-c1ccc(-c2cccc(S(C)(=O)=O)c2)cc1` [Example 15, Ethyl 2-(3-isopropyl-5-(3′-(methylsulfonyl)-[1,1′-biphenyl]-4-yl)-1H-pyrazol-1-yl)acetate] showed a pEC50 of 5.00 to 6.00.
`CC(C)c1cc(-c2ccc(-c3cccc(S(C)(=O)=O)c3)cc2)n(CC(=O)O)n1` [Example 16, 2-(3-Isopropyl-5-(3′-(methylsulfonyl)-[1,1′-biphenyl]-4-yl)-1H-pyrazol-1-yl)acetic acid] was tested, and the pEC50 was less than 5.00.
